Consider 40 compounds from patent US20210283107A1, “Methods to Expand the Spectrum of Gram-Positive Antibiotics” (NORTH CAROLINA STATE UNIVERSITY, priority 2016, published 2021).

Test [1] has as its system A. baumannii strain 5075 (AB5075). The experiment in a line: Macrolide sensitization / antibiotic resensitization: antibiotic MIC in presence of compound (broth microdilution). In kind it is cell-based, Acinetobacter baumannii. As to conditions: AB5075; for MIC: Acinetobacter baumannii, read-out: MIC (μg/mL) of the antibiotic; for MIC / MIC (μg/mL) of the antibiotic: antibiotic alone, no compound (control row). The method, then:
A. baumannii 5075 was plated on LB agar, then grown in CAMHB for 6-8 h and this culture was used to inoculate fresh CAMHB (5×10^5 CFU/mL). The resulting suspension was aliquoted (5 mL) into culture tubes and compound, from 100 mM DMSO stock, was added. One aliquot was not treated (control). 1 mL of each sample was transferred to a new culture tube and antibiotic was added. Rows 2-12 of a 96-well microtiter plate were filled with 100 μL/well from the remaining 4 mL bacterial subcultures, allowing the concentration of compound to be kept uniform throughout the antibiotic dilution procedure. Samples containing antibiotic were aliquoted (200 μL) into the corresponding first row wells of the microtiter plate. Row 1 wells were mixed 6 to 8 times then 100 μL was withdrawn and transferred to row 2. Row 2 wells were mixed 6 to 8 times, followed by a 100 μL transfer from row 2 to row 3. This procedure was repeated to serially dilute the rest of the rows of the microtiter plate, with the exception of the final row, to which no antibiotic was added (to check for growth of bacteria in the presence of compound alone). The microtiter plate was then covered, placed in a covered damp plastic container and incubated under stationary conditions at 37° C. After 16-18 hrs minimum inhibitory concentration (MIC) values were recorded as the lowest concentration of antibiotic at which there was no visible growth of bacteria. Experiments were carried out in duplicate each time and repeated at least twice.
The difference in antibiotic MIC between the control (no compound) sample, and the samples containing each compound was recorded as the fold-reduction.
Day Cultures (6 h) were subcultured to 5×10^5 CFU/mL in cation adjusted Mueller-Hinton broth (CAMHB). […] One milliliter of the resulting solution was aliquoted into a separate culture tube and was dosed with antibiotic so that the resulting concentration was the highest desirable concentration to be tested. Bacteria treated with antibiotic alone were used as a control. Row one of a 96-well plate was filled with 200 μL of the antibiotic/compound solution, and the remaining rows were filled with 100 μL of the remaining 4 mL bacterial subculture. The wells in row one were mixed five times before 100 μL was transferred to the following row (row two). Row two was then mixed five times, and 100 μL was transferred to row three. This process was repeated until the second to last row had been reached. The last row is left unexposed to antibiotic in order to serve as a negative control. The antibiotic only treated bacteria was plated by aliquoting 200 μL of the treated bacteria into row one and filling the remaining rows with untreated bacteria from the original bacteria subculture. The rows were mixed in the same way as described above. Plates were covered with Glad Press n'Seal and were incubated under stationary conditions at 37° C. for 16 hours. MIC values were recorded as the lowest concentration at which no bacterial growth was observed. Fold reductions were determined by comparison of the compound treated wells with the antibiotic only treated control wells.
Background: Dilution methods test growth across graded concentrations, often in twofold steps.

Test [2] shares this test system. The experiment in a line: Broth microdilution MIC determination of compound alone. Type of test: cell-based. The following applies: Acinetobacter baumannii; compound alone; AB5075; read-out: MIC. As to the method:
Our initial screening began by testing a diverse selection of 2-AI compounds from our internal library for their minimal inhibitory concentrations (MIC) against A. baumannii isolate 5075.
Day Cultures (6 h) were subcultured to 5×10^5 CFU/mL in cation adjusted Mueller-Hinton broth (CAMHB). Aliquots (1 mL) were placed in culture tubes, and compound was added from 100 mM stock solutions, such that the compound concentration equaled the highest concentration tested (200 μM or 64 μg/mL). Samples were then aliquoted (200 μL) into the first row of wells of a 96-well plate, with all remaining wells being filled with 100 μL of initial bacterial subculture. The wells in row one were mixed five times before 100 μL was transferred to the following row (row two). Row two was then mixed five times, and 100 μL was transferred to row three. This processed was repeated until the final row had been mixed. This process provided a serial dilution of the compound. Plates were covered with Glad Press n'Seal and were incubated under stationary conditions at 37° C. for 16 hours. MIC values were recorded as the lowest concentration at which no bacterial growth was observed.

[3] abbreviates: compound at 60 μM vs antibiotic alone.
Setting [4] is: compound at 30 μM vs antibiotic alone.

Converted amounts (≈) assume the structure as drawn. Bounds are passed on as bounds.

As for `Nc1nc(-c2ccc(NC(=O)c3ccc(Cl)cc3)cc2)c[nH]1` [Compound 16], in test [1] (setting [3]), the “Fold reduction (erythromycin MIC)” value is given as 4 fold. For the same compound, in test [2], the MIC is more than 200 µM. As to `NC[C@H]1O[C@H](O[C@H]2[C@H](O)[C@@H](O[C@H]3O[C@H](CO)[C@@H](O)[C@H](N)[C@H]3O)[C@H](N)C[C@@H]2N)[C@H](N)C[C@@H]1O` [Tobramycin, reference compound], in test [1], the MIC was 256 µg/mL. For the compound `Nc1nc(-c2ccc(NC(=O)c3cc(F)c(F)c(F)c3)cc2)c[nH]1` [Compound 8], in test [1] (setting [4]), the “Fold reduction (clarithromycin MIC)” value is 32 fold and the “Fold reduction (erythromycin MIC)” value was 8 fold. Also, the MIC in test [2] turned out to be 100 µM (≈ 33.2 µg/mL).

Take `Nc1nc(-c2ccc(NC(=O)c3ccc(C(F)(F)F)cc3)cc2)c[nH]1` [Compound 23]: the MIC in test [2] stood at 50 µM (≈ 17.3 µg/mL). For the compound `Nc1nc(-c2ccc(NC(=O)c3cccc(F)c3)cc2)c[nH]1` [Compound 14], the “Fold reduction (erythromycin MIC)” value in test [1] (setting [3]) was found to be 8 fold. Further, in test [2], the MIC is more than 200 µM.

For the compound `Nc1nc(-c2ccc(NC(=O)c3c(F)c(F)c(F)c(F)c3F)cc2)c[nH]1` [Compound 17], the “Fold reduction (erythromycin MIC)” value in test [1] (setting [3]) is given as 4 fold. Further, the MIC in test [2] is more than 200 µM.

Regarding `CCCCCCC(CCCCCC)NC(=O)CCCc1c[nH]c(N)n1`, the MIC in test [2] worked out at 100 µM (≈ 35.1 µg/mL). In the case of `CCCCCCc1ccc(-c2nc(N)[nH]c2CCCCCC)cc1`, in test [2], the MIC was more than 200 µM. Regarding `Nc1nc(-c2ccc(NC(=O)c3ccc(Br)cc3)cc2)c[nH]1` [Compound 18], the “Fold reduction (erythromycin MIC)” value in test [1] (setting [3]) was 4 fold. In addition, the MIC in test [2] was more than 200 µM. As for Neomycin [reference compound], the “MIC (μg/mL) of the antibiotic” value in test [1] amounted to 64 µg/mL. On the same count and under the same terms, for `CO[C@H]1C[C@H](O[C@H]2[C@H](C)[C@@H](O[C@@H]3O[C@H](C)C[C@H](N(C)C)[C@H]3O)[C@@H](C)C[C@@]3(CO3)C(=O)[C@H](C)[C@@H](O)[C@@H](C)[C@@H](C)OC(=O)[C@@H]2C)O[C@@H](C)[C@@H]1O` [Oleandomycin, oleandomycin, reference compound] the value was 256 µg/mL. `CCCCCCCCn1cc(Cc2ccccc2)nc1N`: the MIC in test [2] is more than 200 µM.

Regarding `CO[C@@H]1[C@@H](O[C@@H]2O[C@H](C)[C@@H](O[C@H]3C[C@@](C)(O)[C@@H](OC(=O)CC(C)C)[C@H](C)O3)[C@H](N(C)C)[C@H]2O)[C@@H](CC=O)C[C@@H](C)[C@@H](O)/C=C/C=C/C[C@@H](C)OC(=O)C[C@H]1OC(C)=O` [Josamycin, josamycin, reference compound], the “MIC (μg/mL) of the antibiotic” value in test [1] is 128 µg/mL.

With `Nc1nc(-c2ccc(NC(=O)c3ccc(C(F)(F)F)c(F)c3)cc2)c[nH]1` [Compound 24], the MIC in test [2] was 25 µM (≈ 9.11 µg/mL). In the case of Gentamicin [reference compound], the “MIC (μg/mL) of the antibiotic” value in test [1] is more than 512 µg/mL. For `Nc1nc(CCCCCc2cn(-c3ccc(C(=O)NCCc4ccccc4)cc3)nn2)c[nH]1`, the MIC in test [2] was more than 200 µM.

Take `Cc1ccc(C(=O)Nc2ccc3[nH]c(N)nc3c2)cc1`: the MIC in test [2] is more than 200 µM. `Cl.Nc1ncc(CCCCCc2ccccc2)[nH]1` [Compound 13]: in test [1] (setting [4]), the “Fold reduction (erythromycin MIC)” value was determined as 4 fold. Also, the MIC in test [2] amounted to 200 µM. Consider `CCCCCc1ccc(C(=O)NCCn2cc(CCCCCc3cnc(N)n3Cc3ccc(CCCC)cc3)nn2)cc1` [Compound 7], for which, in test [1] (setting [3]), the “Fold reduction (erythromycin MIC)” value was 4 fold. Further, the MIC in test [2] is 200 µM (≈ 117 µg/mL). Take `CCOc1ccc(Cn2c(CCCCCc3cn(CCNC(=O)c4ccc(C)cc4)nn3)cnc2N)cc1OCC`: the MIC in test [2] came to 100 µM (≈ 56 µg/mL). With `CCCCCC(=O)Nc1ccc(-c2c[nH]c(N)n2)cc1.Cl` [Compound 3], in test [1] (setting [3]), the “Fold reduction (azithromycin MIC)” value amounted to 8 fold, the “Fold reduction (clarithromycin MIC)” value was 32 fold and the “Fold reduction (erythromycin MIC)” value is recorded as 16 fold. Moreover, the “Azithromycin MIC” value in test [1] (in presence of compound at 60 μM) came out at 8 µg/mL. Further, the MIC in test [2] was more than 200 µM. With `Cl.Nc1nc(-c2ccc(NC(=O)/C=C/c3ccccc3)cc2)c[nH]1` [Compound 2], in test [1] (setting [4]), the “Fold reduction (azithromycin MIC)” value stood at 4 fold, the “Fold reduction (clarithromycin MIC)” value is on record as 32 fold and the “Fold reduction (erythromycin MIC)” value was 8 fold. Moreover, the “Azithromycin MIC” value in test [1] (in presence of compound at 30 μM) is 16 µg/mL. The MIC in test [2] was determined as 100 µM. As for `Nc1nc(-c2ccc(NC(=O)c3cc(F)cc(F)c3)cc2)c[nH]1` [Compound 15], the “Fold reduction (erythromycin MIC)” value in test [1] (setting [3]) is reported as 8 fold. Besides, in test [2], the MIC stood at 200 µM (≈ 62.9 µg/mL). Consider `CC1(C)CC(=O)N(c2ccc3[nH]c(N)nc3c2)C(=O)C1`, for which the MIC in test [2] was more than 200 µM. For `NCC[C@H](O)C(=O)N[C@@H]1C[C@H](N)[C@@H](O[C@H]2O[C@H](CN)[C@@H](O)[C@H](O)[C@H]2O)[C@H](O)[C@H]1O[C@H]1O[C@H](CO)[C@@H](O)[C@H](N)[C@H]1O` [Amikacin, reference compound], in test [1], the “MIC (μg/mL) of the antibiotic” value stood at 128 µg/mL. As for `CCCCCCCCCC(=O)N[C@@H](Cc1c[nH]c2ccccc12)C(=O)N[C@H](CC(N)=O)C(=O)N[C@@H](CC(=O)O)C(=O)N[C@@H]1C(=O)NCC(=O)N[C@@H](CCCN)C(=O)N[C@@H](CC(=O)O)C(=O)N[C@H](C)C(=O)N[C@@H](CC(=O)O)C(=O)NCC(=O)N[C@H](CO)C(=O)N[C@@H]([C@H](C)CC(=O)O)C(=O)N[C@@H](CC(=O)c2ccccc2N)C(=O)O[C@@H]1C` [Daptomycin, reference compound], in test [1], the MIC is 2050 µg/mL.

As for `CC(=O)NC[C@H]1CN(c2ccc(N3CCOCC3)c(F)c2)C(=O)O1` [Linezolid, linezolid, reference compound], the MIC in test [1] is 256 µg/mL. As to `CCCCCCCCCC(=O)NCCn1cc(CCCCCc2c[nH]c(N)n2)nn1`, the MIC in test [2] was more than 200 µM. As for `CCCCCCC(=O)Nc1ccc2[nH]c(N)nc2c1`, the MIC in test [2] is more than 200 µM. Consider `[H]/N=C(/N)N[C@H]1[C@H](O)[C@@H](O)[C@H](O[C@@H]2O[C@@H](C)[C@](O)(C=O)[C@H]2O[C@@H]2O[C@@H](CO)[C@H](O)[C@@H](O)[C@@H]2NC)[C@@H](N/C(N)=N\[H])[C@@H]1O` [Streptomycin, reference compound], for which, in test [1], the MIC was more than 512 µg/mL.

As to `CCCCCCc1ccc(-c2c[nH]c(N)n2)cc1`, the MIC in test [2] was determined as 100 µM (≈ 24.3 µg/mL).

Consider `Nc1nc(CCCNC(=O)c2cc(Br)c(Br)[nH]2)c[nH]1`, for which the MIC in test [2] is more than 200 µM. The same measure, in the same setting: under `C/C(=C\c1ccccc1)CNC(=O)Cn1cc(CCCCCc2c[nH]c(N)n2)nn1` stands more than 200 µM. With colistin [reference compound], in test [1], the “MIC (μg/mL) of the antibiotic” value was 0.5 µg/mL.

Turning to `Nc1nc2cc(NC(=O)c3c(F)c(F)c(F)c(F)c3F)ccc2[nH]1`, the MIC in test [2] was more than 200 µM. As to `CO[C@H]1C[C@H](O[C@H]2[C@H](C)[C@@H](O[C@@H]3O[C@H](C)C[C@H](N(C)C)[C@H]3OC(C)=O)[C@@H](C)C[C@@]3(CO3)C(=O)[C@H](C)[C@@H](OC(C)=O)[C@@H](C)[C@@H](C)OC(=O)[C@@H]2C)O[C@@H](C)[C@@H]1OC(C)=O` [Troleandomycin, troleandomycin, reference compound], the MIC in test [1] was more than 512 µg/mL.

Regarding `CCCCCCC/C=C\CCCCCCCc1c[nH]c(N)n1`, the MIC in test [2] is more than 200 µM.

As to spiramycin [reference compound], the “MIC (μg/mL) of the antibiotic” value in test [1] is more than 512 µg/mL. With `NC[C@H]1O[C@H](O[C@H]2[C@H](O)[C@@H](O[C@H]3O[C@H](CO)[C@@H](O)[C@H](N)[C@H]3O)[C@H](N)C[C@@H]2N)[C@H](O)[C@@H](O)[C@@H]1O` [Kanamycin, reference compound], in test [1], the MIC is more than 512 µg/mL. With `Nc1nc(-c2ccc(NC(=O)c3ccccc3F)cc2)c[nH]1` [Compound 22], the MIC in test [2] was more than 200 µM.
